Like-named read-outs stand apart in the source and are kept apart here.
What was measured:
[1] = system: Key Grass and Sedge Weeds as well as Grass Crops; assay: Post-emergent Test II herbicidal activity (Table 6); assay type: in vivo; conditions: post-emergence, 336 h; for pest or weed control at 70 g/ha: application rate 70 g ai/ha; for pest or weed control at 140 g/ha: application rate 140 g ai/ha
Outline: (§1)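 Plants grown in Metro-Mix 360 (pH 6.0–6.8) in a greenhouse (~15 h photoperiod, 23–29 °C day) to first or second true leaf stage, then sprayed with compound in acetone/DMSO/aqueous crop-oil-surfactant carrier at 187 L/ha by track sprayer. Injury visually scored 0–100% versus untreated plants after 14 d.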

[2] = system: Key Broadleaf Weed and Crop Species; assay: Post-emergent Test II herbicidal activity (Table 5); assay type: in vivo; conditions: post-emergence, 336 h, post-emergent, 14 days after application; for pest or weed control at 70 g/ha: 70 g ai/ha; for pest or weed control at 140 g/ha: 140 g ai/ha
Outline: as §1

[3] = CYPES: yellow nutsedge (Cyperus esculentus), read-out: Visual Growth Reduction (%) 14 Days After Application, CYPES
[4] = DIGSA: crabgrass (Digitaria sanguinalis), read-out: Visual Growth Reduction (%) 14 Days After Application, DIGSA
[5] = ECHCG: barnyardgrass (Echinochloa crus-galli), read-out: Visual Growth Reduction (%) 14 Days After Application, ECHCG
[6] = ORYSA: rice (Oryza sativa), read-out: Visual Growth Reduction (%) 14 Days After Application, ORYSA
[7] = SETFA: giant foxtail (Setaria faberi), read-out: Visual Growth Reduction (%) 14 Days After Application, SETFA
[8] = SORVU: grain sorghum (Sorghum vulgare), read-out: Visual Growth Reduction (%) 14 Days After Application, SORVU
[9] = TRZSS (wheat, Triticum aestivum), read-out: Visual Growth Reduction (%) 14 Days After Application, TRZSS
[10] = ZEAMX: maize, corn (Zea mays), read-out: Visual Growth Reduction (%) 14 Days After Application, ZEAMX
[11] = ABUTH: velvetleaf (Abutilon theophrasti), read-out: Visual Growth Reduction (%) 14 Days After Application ABUTH
[12] = AMARE: redroot pigweed (Amaranthus retroflexus), read-out: Visual Growth Reduction (%) 14 Days After Application AMARE
[13] = BRSNN: oilseed-rape, canola (Brassica napus), read-out: Visual Growth Reduction (%) 14 Days After Application BRSNN
[14] = CHEAL: lambsquarters (Chenopodium album), read-out: Visual Growth Reduction (%) 14 Days After Application CHEAL
[15] = EPHHL: wild poinsettia (Euphorbia heterophylla), read-out: Visual Growth Reduction (%) 14 Days After Application EPHHL
[16] = HELAN: sunflower (Helianthus annuus), read-out: Visual Growth Reduction (%) 14 Days After Application HELAN
[17] = VIOTR: wild pansy (Viola tricolor), read-out: Visual Growth Reduction (%) 14 Days After Application VIOTR

Compound: COC(=O)c1nc(-c2cc(F)c(C(F)F)cc2F)c(F)c(N)c1Cl [Compound 176]
- pest or weed control at 70 g/ha [1, 3]: 85 to 94%
- pest or weed control at 140 g/ha [1, 3]: 95 to 100%
- pest or weed control at 70 g/ha [1, 4]: 45 to 59%
- pest or weed control at 140 g/ha [1, 4]: 60 to 74%
- pest or weed control at 70 g/ha [1, 5]: 85 to 94%
- pest or weed control at 140 g/ha [1, 5]: 85 to 94%
- pest or weed control at 70 g/ha [1, 6]: 0 to 29%
- pest or weed control at 140 g/ha [1, 6]: 0 to 29%
- pest or weed control at 70 g/ha [1, 7]: 85 to 94%
- pest or weed control at 140 g/ha [1, 7]: 85 to 94%
- pest or weed control at 70 g/ha [1, 8]: 60 to 74%
- pest or weed control at 140 g/ha [1, 8]: 85 to 94%
- pest or weed control at 70 g/ha [1, 9]: 30 to 44%
- pest or weed control at 140 g/ha [1, 9]: 45 to 59%
- pest or weed control at 70 g/ha [1, 10]: 0 to 29%
- pest or weed control at 140 g/ha [1, 10]: 85 to 94%
- melting point: 135.2 to 136.9 °C
- pest or weed control at 70 g/ha [2, 11]: 95 to 100%
- pest or weed control at 140 g/ha [2, 11]: 95 to 100%
- pest or weed control at 70 g/ha [2, 12]: 95 to 100%
- pest or weed control at 140 g/ha [2, 12]: 95 to 100%
- pest or weed control at 70 g/ha [2, 13]: 95 to 100%
- pest or weed control at 140 g/ha [2, 13]: 95 to 100%
- pest or weed control at 70 g/ha [2, 14]: 85 to 94%
- pest or weed control at 140 g/ha [2, 14]: 85 to 94%
- pest or weed control at 70 g/ha [2, 15]: 95 to 100%
- pest or weed control at 140 g/ha [2, 15]: 95 to 100%
- pest or weed control at 70 g/ha [2, 16]: 95 to 100%
- pest or weed control at 140 g/ha [2, 16]: 95 to 100%
- pest or weed control at 70 g/ha [2, 17]: 30 to 44%
- pest or weed control at 140 g/ha [2, 17]: 45 to 59%
